{
  "source": "patent US4610868A",
  "about": "“Lipid matrix carriers for use in drug delivery systems” (The Liposome Company, Inc., priority 1984, dated 1986)",
  "key": {"[1]": {"assay": "Entrapment of ^14C-sucrose/streptomycin in LMCs (liquid scintillation counting)", "format": "physicochemical", "settings": "with streptomycin, corn oil/EPC, water-in-oil emulsion", "protocol": "Streptomycin (Sigma Chemical Co., St. Louis, Missouri) and ^14 C-sucrose (New England Nuclear, Boston, Massachusetts, 31.3 μCi/m mole) were used together as model water soluble compounds for entrapment in conjunction with corn oil and EPC. The ratio of corn oil to EPC used to prepare the emulsion was […] (weight/weight basis). The water-in-oil emulsion was prepared as follows: 6 ml of corn oil, 40 mg of EPC and 0.3 ml of phosphate buffered saline (PBS) containing 10 μl of ^14 C-sucrose and 100 mg of streptomycin were sonicated together for 45 seconds, using a Branson Model E sonicator at 22° C. The resulting water-in-oil emulsion was then extruded slowly through a 21 gauge syringe needle into 40 ml of the saturated acetone solution, with rapid stirring.\nA cloudy suspension of LMCs resulted that was centrifuged at 10,000×gfor 10 minutes at 4° C. The clear supernatant fluid was removed, and the pellet was washed three times with cold saturated acetone, dried under a nitrogen stream, and resuspended in 10 ml of PBS. The hydrated LMCs were then diluted with an equal volume of Ficoll-Paque (Pharmacia Fine Chemicals, Piscataway, New Jersey) and centrifuged at 10,000×g for 10 minutes. […]\nIn FIG. 4, the data are based upon the stability of streptomycin-LMCs in serum. […] At the times indicated, the absorbances of the samples at 400 and 600 nm were determined, and the 400/600 ratios were computed."}, "[2]": {"assay": "Entrapment of indomethacin or diazepam in LMCs (radiolabeled tracer)", "format": "physicochemical", "protocol": "Ten mg of indomethacin (Sigma Chemical Co., St. Louis, Missouri) plus 10 μl of the ^14 C-labeled drug as a tracer (New England Nuclear, Boston, Massachusetts, 22 mCi/m mole) were dissolved in 1.5 ml of chloroform. This solution was then combined with 4 ml of corn oil and 150 mg of EPC, and the mixture was slowly extruded through a 21 gauge syringe needle into 20 ml of PBS at 45° C., with stirring. After combining all constituents, the mixture was roto-evaporated at 45° C. to remove the chloroform. One ml of the resulting suspension was then combined with an equal volume of Ficoll-Paque, the mixture was centrifuged at 10,000×g for 10 minutes, and the LMCs, which floated to the top of the gradient, were isolated.\nBy following the procedure described in Section 6.2.1., supra, 5 mg of diazepam (Abbott Laboratories, N. Chicago, Illinois) with a trace of the ^3 H-labeled drug added (New England Nuclear, Boston, Massachusetts, 76.7 Ci/m mole) were incorporated into LMCs."}, "[3]": {"format": "in vivo, Swiss Webster mice", "settings": "80 mg/kg IM", "protocol": "LMCs containing oxytetracycline--HCl (Sigma Chemical Co., St. Louis, Missouri) were prepared as described in Section 6.1.3. supra. The LMCs thus produced contained 20 mg of oxytetracycline per ml of hydrated LMCs, as determined by the bioassay described in Section 6.1.3. Ten 25 g female adult Swiss Webster mice were then injected IM with 80 mg/kg of oxytetracycline in one hind leg, using either LMC-oxytetracycline or the free drug. In both cases, the antibiotic was administered in 0.1 ml of physiological saline.\nAt the times indicated in FIG. 3, samples of clean-catch urine were taken and aliquots were plated onto lawns of S. aureus (ATCC 11632) as described in Section 7.1. Antibiotic levels were quantified by comparison to an oxytetracycline standard curve. […] By 174 hours following injection, urinary levels of oxytetracycline were undetectable."}, "[4]": {"assay": "Fluorescence/retention of oxytetracycline in skin after topical administration", "format": "in vivo, Swiss Webster mice", "settings": "0.2 ml of 100 mg/ml", "protocol": "(§1) In the following experiment, two groups of adult male Swiss Webster mice were treated with oxytetracycline as follows: 5 mice per group were depilitated on the back of their necks and 0.2 ml of 100 mg/ml oxytetracycline was topically applied to the depilitated area. The control group received oxytetracycline in PBS whereas the second group received oxytetracycline encapsulated in LMCs prepared as described in Section 6.1.3.\nOn a daily basis the treated area of each mouse was illuminated with ultraviolet light and inspected for fluorescence. Since oxytetracycline is fluorescent, the fluorescence of the treated skin is an indication of the presence of the drug in the skin. Fluorescence could be detected for only 2 days in the control group treated with the aqueous solution of oxytetracycline. […] In contrast, fluorescence could be detected up to 4 days in the group that was treated with oxytetracycline-LMCs."}, "[5]": {"assay": "Systemic release (urine) of oxytetracycline after topical administration", "format": "in vivo, Swiss Webster mice", "settings": "0.2 ml of 100 mg/ml, 1, 18, 44 and 72 hours", "protocol": "as §1\nClean catch urine samples were taken at 1, 18, 44, and 72 hours after topical application and aliquots were analyzed for the presence of oxytetracycline using the bioassay previously described in Sections 6.1.2, 7.1, and 7.2."}, "[6]": {"design": "species or system Hartley guinea pigs", "settings": "guinea pig, in vivo, ip", "protocol": "To investigate the drug release characteristics of LMCs in vivo, gentamicin-LMC preparations were injected intraperitoneally (IP) into experimental animals. The final distribution of the drug was then compared with that of similarly injected free gentamicin.\nLMCs were prepared as described in Section 6.1.2., using 6 ml of corn oil, 0.3 ml of PBS, 40 mg of EPC, 100 mg of gentamicin (with a small amount of I-gentamicin added as a tracer) and 40 ml of acetone. The resulting product contained 0.5 mg of gentamicin per mg of dry weight LMCs, as determined by gamma counting.\nTwo groups of 850 g female adult Hartley guinea pigs (Hilltop Farms, Scottsdale, Pennsylvania) were treated as follows: Animals in one group each received 0.3 ml of 100 μg/ml gentamicin in saline (with a small amount of ^125 I-gentamicin added as a tracer), IP. IP injection leads to rapid systemic distribution of the injected material. Animals in the other group received the same quantity of gentamicin entrapped in LMCs. At various times after injection pairs of animals were sacrificed, the hearts, spleens, kidneys and livers were removed, and the quantity of gentamicin in each organ was determined by counting in a crystal gamma counter."}},
  "note": "Where two headings read alike, the source gives them in different places.",
  "data": [
    {"compound": "OC[C@H]1O[C@@](CO)(O[C@H]2O[C@H](CO)[C@@H](O)[C@H](O)[C@H]2O)[C@@H](O)[C@@H]1O", "note": "[^14 C-sucrose, sucrose]", "values": [
      {"measurement": "initial amount of ^14 C-sucrose entrapped in the LMCs", "setting": "[1]", "result": 96.5, "unit": "%"}
    ]},
    {"compound": "CN1C(=O)CN=C(c2ccccc2)c2cc(Cl)ccc21", "note": "[diazepam]", "values": [
      {"measurement": "degree of entrapment", "setting": "[2]", "result": 93, "unit": "%"}
    ]},
    {"compound": "COc1ccc2c(c1)c(CC(=O)O)c(C)n2C(=O)c1ccc(Cl)cc1", "note": "[indomethacin]", "values": [
      {"measurement": "degree of entrapment", "setting": "[2]", "result": 84, "unit": "%"},
      {"measurement": "degree of entrapment (starting amount incorporated into the LMCs)", "setting": "[2]; corn oil/EPC, chloroform", "result": 84, "unit": "%"}
    ]},
    {"compound": "CN(C)C1C(=O)C(C(N)=O)=C(O)C2(O)C(=O)C3=C(O)c4c(O)cccc4C(C)(O)C3C(O)C12", "note": "(stereo not drawn) [oxytetracycline]", "values": [
      {"measurement": "time within which urinary levels diminished to zero", "setting": "[3]", "result": "≤ 30", "unit": "h"},
      {"measurement": "duration of detectable skin fluorescence", "setting": "[4]", "result": 2, "unit": "days"},
      {"measurement": "removal from skin by washing", "setting": "[4]", "result": "could easily be washed off"},
      {"measurement": "oxytetracycline in urine", "setting": "[5]", "result": "No detectable levels"}
    ]},
    {"compound": "gentamicin", "values": [
      {"measurement": "Recovery of Gentamicin, Heart", "setting": "[6]; 15 min", "result": "0.17 % of Total Administered"},
      {"measurement": "Recovery of Gentamicin, Kidney", "setting": "[6]; 15 min", "result": "2.53 % of Total Administered"},
      {"measurement": "Recovery of Gentamicin, Liver", "setting": "[6]; 15 min", "result": "2.60 % of Total Administered"},
      {"measurement": "Recovery of Gentamicin, Spleen", "setting": "[6]; 15 min", "result": "0.09 % of Total Administered"},
      {"measurement": "Recovery of Gentamicin, Heart", "setting": "[6]; 30 min", "result": "1.23 % of Total Administered"},
      {"measurement": "Recovery of Gentamicin, Kidney", "setting": "[6]; 30 min", "result": "4.32 % of Total Administered"},
      {"measurement": "Recovery of Gentamicin, Liver", "setting": "[6]; 30 min", "result": "3.14 % of Total Administered"},
      {"measurement": "Recovery of Gentamicin, Spleen", "setting": "[6]; 30 min", "result": "0.08 % of Total Administered"},
      {"measurement": "Recovery of Gentamicin, Heart", "setting": "[6]; 60 min", "result": "0.15 % of Total Administered"},
      {"measurement": "Recovery of Gentamicin, Kidney", "setting": "[6]; 60 min", "result": "7.04 % of Total Administered"},
      {"measurement": "Recovery of Gentamicin, Liver", "setting": "[6]; 60 min", "result": "2.28 % of Total Administered"},
      {"measurement": "Recovery of Gentamicin, Spleen", "setting": "[6]; 60 min", "result": "0.05 % of Total Administered"},
      {"measurement": "Recovery of Gentamicin, Heart", "setting": "[6]; 120 min", "result": "0.13 % of Total Administered"},
      {"measurement": "Recovery of Gentamicin, Kidney", "setting": "[6]; 120 min", "result": "7.27 % of Total Administered"},
      {"measurement": "Recovery of Gentamicin, Liver", "setting": "[6]; 120 min", "result": "2.00 % of Total Administered"},
      {"measurement": "Recovery of Gentamicin, Spleen", "setting": "[6]; 120 min", "result": "0.04 % of Total Administered"}
    ]}
  ]
}
